Laboratory results reported in patent US8268877B2, “Microbiocides” (Syngenta Crop Protection, LLC, priority 2009, dated 2012).

What was measured:
Pyrenophora teres = test: Action against Pyrenophora teres (net blotch), barley leaf segments, preventive; format: in vivo; conditions: foliar, 60 ppm active ingredient, sprayed before inoculation, assessed 4 dpi, read-out: inhibition (preventive fungicidal activity)
Experimental: (§1) Barley leaf segments are placed on agar in multiwell plates (24-well format) and sprayed with test solutions (60 ppm active ingredient). After drying, the leaf disks are inoculated with a spore suspension of the fungus. After appropriate incubation the activity of a compound is assessed 4 dpi (days after inoculation) as preventive fungicidal activity.

Fusarium culmorum = test: whole plant or invertebrate; format: in vivo; conditions: in Triticum aestivum, read-out: inhibition (preventative fungicidal activity)
[1] = system: Fusarium graminearum, Syn. Gibberella zeae; test: whole plant or invertebrate; format: in vivo; conditions: in Triticum aestivum, read-out: inhibition (preventative fungicidal activity)
[2] = system: Monographella nivalis (Microdochium nivale); test: Action against Monographella nivalis/liquid culture (foot rot cereals); format: cell-based; conditions: liquid culture (PDB), 200 ppm active ingredient, 24° C., photometrically after 4-6 days
Experimental: Conidia of the fungus from cryogenic storage are directly mixed into nutrient broth (PDB potato dextrose broth). After placing a (DMSO) solution of the test compounds (200 ppm active ingredient) into a microtiter plate (96-well format) the nutrient broth containing the fungal spores is added. The test plates are incubated at 24° C. and the inhibition of growth is measured photometrically after 4-6 days.

[3] = system: Phaeosphaeria nodorum (Septoria nodorum); test: Action against Phaeosphaeria nodorum/wheat/leaf disc preventative (glume blotch); format: in vivo; conditions: wheat leaf segments, 60 ppm active ingredient, sprayed before inoculation, assessed 4 dpi
Experimental: as §1, with “Wheat leaf segments” for “Barley leaf segments”, “agar in a multiwell plate” for “agar in multiwell plates”, “a multiwell plate (24-well format)” for “in multiwell plates (24-well format)”

Puccinia recondita = test: Action against Puccinia recondita/wheat/leaf disc curative (brown rust); format: in vivo; conditions: wheat leaf segments, 200 ppm active ingredient, applied one day after inoculation, assessed 8 dpi
Source text: Wheat leaf segments are placed on agar in multiwell plates (24-well format). The leaf disks are then inoculated with a spore suspension of the fungus. One day after inoculation the test solution is applied (200 ppm active ingredient).

Compound	inhibition of growth [2]	inhibition (preventive fungicidal activity) [3]	other results
CON(C(=O)c1cn(C)nc1C(F)F)C(C)Cc1sc2ccc(Cl)cc2c1Cl (centres unmarked) [Compound 1.001, 3-Difluoromethyl-1-methyl-1H-pyrazole-4-carboxylic acid [2-(3,5-dichlorobenzo[b]thiophen-2-yl)-1-methyl-ethyl]methoxyamide]	–	–	inhibition at 60 ppm (Pyrenophora teres): ≥ 80%; inhibition at 60 ppm (Fusarium culmorum): ≥ 80%; melting point: 129 to 131 °C; inhibition at 60 ppm [1]: ≥ 80%
CON(C(=O)c1cn(C)nc1C(F)F)C(C)Cc1sc2cc(Cl)ccc2c1Cl (centres unmarked) [Compound 1.002]	80%	80%	–
CON(C(=O)c1cn(C)nc1C(F)F)C(C)Cc1sc2ccc(Br)cc2c1Cl (centres unmarked) [Compound 1.006]	80%	80%	inhibition (curative fungicidal activity) (Puccinia recondita): 80%
CC(Cc1sc2ccc(Cl)cc2c1Cl)N(O)C(=O)c1cn(C)nc1C(F)F (centres unmarked) [Compound 1.010]	80%	–	–
COC(c1sc2cc(Cl)ccc2c1Cl)C(C)N(OC)C(=O)c1cn(C)nc1C(F)F (centres unmarked) [Compound 1.015]	80%	80%	–
COC(c1sc2ccc(Br)cc2c1Cl)C(C)N(OC)C(=O)c1cn(C)nc1C(F)F (centres unmarked) [Compound 1.016]	80%	–	–
CON(C(=O)c1cn(C)nc1C(F)(F)F)C(C)Cc1sc2cc(Cl)ccc2c1Cl (centres unmarked) [Compound 2.002]	80%	80%	–
COC(c1sc2cc(Cl)ccc2c1Cl)C(C)N(OC)C(=O)c1cn(C)nc1C(F)(F)F (centres unmarked) [Compound 2.015]	80%	–	–
CON(C(=O)c1c(C)nn(C)c1F)C(C)Cc1sc2cc(Cl)ccc2c1Cl (centres unmarked) [Compound 3.002]	–	80%	–
